Data from patent publication US5843990A, “Pyran-chromenone compounds, their synthesis and anti-HIV activity” (The University of Tennessee Research Corporation, priority 1996, dated 1998).
Entries after “also recorded” stand apart in the source; their conditions may differ. Where two headings read alike, the source gives them in different places.

Experiments:
HIV-1 = experiment: NCI (Weislow) anti-HIV screen, XTT cell protection, HIV-1 infected CEM-SS; assay type: cell-based; details: for EC50: Human immunodeficiency virus 1, 6 days, HIV-1 infected CEM-SS cells, 8c, 8d tested as racemic drug, read-out: EC50 (effective inhibition for 50% of cell growth); for EC50 / TI (therapeutic index, IC50/EC50): Table 3; for anti-HIV activity / relative potency in words: NCI anti-HIV screen; for TI (therapeutic index, IC50/EC50) / Classification (Active / Moderately Active / Inactive): CEM-SS, HIV-1; for TI (therapeutic index, IC50/EC50): 8640 min; for Classification (Active / Moderately Active / Inactive): Weislow assay, criteria of NCI protocol
Experimental: The compounds of this invention were also all assayed for activity in inhibiting the growth of HIV, human immunodeficiency virus, the virus known to cause AIDS. The protocol^25 was that of the National Cancer Institute (NCI) of the National Institutes of Health. The primary screen makes use of the HIV-1 strain of the virus. By this protocol, the procedure is as follows:
(1) The sample is dissolved in dimethyl sulfoxide, then diluted 1:100 in cell culture medium before preparing serial half-log10 dilutions. T4 lymphocytes (CEM cell line) are added, and after a brief interval, HIV-1 is added, resulting in a 1:200 dilution of the compound. Uninfected cells with the compound serve as a toxicity control, and infected and uninfected cells without the compound serve as basic controls. […]
(§1) (3) The tetrazolium salt, XTT, is added to all wells, and cultures are incubated to allow formazan color development by viable cells.
(§2) (4) Individual wells are analyzed spectrophotometrically to quantitate fornazan production, and in addition are viewed microscopically for detection of viable cells and confirmation of protective activity.
(§3) (5) Drug-treated, virus-infected cells are compared with drug-treated, noninfected cells and with other appropriate controls (untreated infected and untreated noninfected cells, drug-containing wells without cells, etc.) on the same plate.
(6) Data are reviewed in comparison with other tests done at the same time, and a determination about activity is made.
(§4) The results are given for IC50 and EC50. IC50 is a measure of "concentration for inhibition of 50% of cell growth" and is measured from drug-treated, uninfected cells, thus giving a measure of drug toxicity toward T4 lymphocytes. The EC50 is "effective inhibition for 50% of cell growth" and is measured on drug-treated, HIV-infected cells. A ratio of these values, IC50 /EC50 gives the therapeutic index, a measure of the overall effectiveness of the drug in halting virus-infestedcell growth. Typically for anti-HIV drugs to be classed as "active" in the NCI protocol, the IC50 value should be at least micromolar (10^-6 M) and the EC50 value should be sub-micromolar (10^-7 M or lower); however, these values are only ideal, and may vary a log-order in magnitude or more. […] Large, positive TI values, measured in the 10^2 -10^3 range indicate a potent, relatively nontoxic drug and represent the near-ideal drug candidate.
(§5) ^a Testing was conducted according to NCI's protocol [Weislow, O. W.
(§6) et al. J. Natl. Cancer Inst. 1989, 81, 577-586]. The virus strain was
(§7) HIV1, and the cell line was CEMSS.

[1] = tested on: T4 lymphocytes (CEM cell line), CEMSS; experiment: NCI protocol toxicity control: growth of drug-treated, uninfected CEM-SS cells; assay type: cell-based; details: Homo sapiens, Table 3, 8b-8e tested as racemic drug, read-out: IC50 (concentration for inhibition of 50% of cell growth)
Experimental: (§8) (1) The sample is dissolved in dimethyl sulfoxide, then diluted 1:100 in cell culture medium before preparing serial half-log10 dilutions. T4 lymphocytes (CEM cell line) are added, and after a brief interval, HIV-1 is added, resulting in a 1:200 dilution of the compound. Uninfected cells with the compound serve as a toxicity control, and infected and uninfected cells without the compound serve as basic controls.
(§9) (2) Cultures are incubated at 37° C. in a 5% carbon dioxide atmosphere for six days.
as §1, §2, §3, §4, §5, §6, §7

[2] = tested on: human immunodeficiency virus (HIV); details: four diastereomers of the calanolide series, literature, cited from earlier work
[3] = tested on: strains of HIV resistant to other drugs that inhibit HIV reverse transcriptase; experiment: Activity against HIV strains resistant to other HIV reverse transcriptase inhibitors (summary in words); assay type: cell-based; details: HIV-1 (6R), N119, DPS
From the text: (§10) Among these are the following strains of the virus: (1) HIV-1 (6R), an AZT-resistant strain; (2) N119, a nevirapine-resistant strain bearing a mutation at AA codon 181; (2) DPS, a diphenyl sulfone-resistant strain bearing a different mutation at AA codon 181.
From the data in the Table, both compounds (-)-7a and 8a were classified as "active" for inhibition of each resistant HIV strain. From the large TI values, their potencies against these resistant strains of the virus are novel and remarkable. Other compounds of the invention are expected also to have this property.
as §5, §6
(§11) HIV1, and the cell line was MT4.

[4] = tested on: N119, a nevirapine-resistant strain bearing a mutation at AA codon 181; experiment: NCI protocol, N119 nevirapine-resistant strain, MT4 cells; assay type: cell-based, HIV-1; details: for EC50: Human immunodeficiency virus 1, MT4; for Classification: NCI criteria
Experimental: as §8, §9, §1, §2, §3, §4, §10, §5, §6, §11

[5] = tested on: DPS, a diphenyl sulfone-resistant strain bearing a different mutation at AA codon 181; experiment: NCI protocol, DPS diphenyl sulfone-resistant strain, MT4 cells; assay type: cell-based, HIV-1; details: for EC50: Human immunodeficiency virus 1, MT4; for TI (IC50/EC50) / Classification: Table 4, DPS, MT4 cells; for Classification: NCI criteria
Experimental: as §8, §9, §1, §2, §3, §4, §10, §5, §6, §11

[6] = tested on: HIV-1 (6R), an AZT-resistant strain; experiment: NCI protocol, HIV-1 (6R) AZT-resistant strain, MT4 cells; assay type: cell-based; details: for EC50: Human immunodeficiency virus 1, MT4; for TI (IC50/EC50) / Classification: Table 4, HIV-1 (6R), MT4 cells; for Classification: NCI criteria
Experimental: as §8, §9, §1, §2, §3, §4, §10, §5, §6, §11

MT4 cells = experiment: NCI protocol toxicity control: growth of drug-treated, uninfected MT4 cells; assay type: cell-based; details: Homo sapiens
Experimental: as §8, §9, §1, §2, §3, §4, §5, §6, §11

[7] = MT4, Table 4, line of strain DPS
[8] = MT4, Table 4, line of strain HIV-1 (6R)
[9] = MT4, Table 4, line of strain N119

## CCCc1cc(=O)oc2c3c(cc(OC(C)CC)c12)O[C@H](C)[C@@H](C)[C@@H]3O (relative stereo) [Compound 8c]
HIV-1
  EC50: 3660 nM
  anti-HIV activity / relative potency in words: less potent activities
  TI (therapeutic index, IC50/EC50): 10.2
  Classification (Active / Moderately Active / Inactive): Mod. Active; also recorded: moderately active
[1]
  IC50: 37.4 µM

## CCCc1cc(=O)oc2c3c(c4c(c12)OC(C)(C)C=C4)O[C@H](C)[C@@H](C)[C@@H]3O [(+)-calanolide A]
[2]
  anti-HIV potency of known calanolides, in words: the more potent of the four diastereomers
[2]; listed as (+)-Calanolide A
  anti-HIV potency of known calanolides, in words: more potent diastereomers in this class

## CCCc1cc(=O)oc2c3c(cc(OC(C)C)c12)O[C@@H](C)[C@H](C)[C@@H]3O [(-)-7a, (-)-(8S,9R,10S)-10-Hydroxy-5-isopropyloxy-8,9-dimethyl-4-propyl-9,10-di-hydro-8H-pyrano[2,3-f]-chromen-2-one]
[3]
  inhibitory activity against resistant HIV strains, in words: potent inhibitory activities; also recorded: active; also recorded: potent activity
[4]
  EC50: 7.01 nM
[4]; Table 4, N119, MT4 cells
  TI (IC50/EC50): 1540
  Classification: Active
HIV-1
  EC50: 963 nM
  anti-HIV activity / relative potency in words: highly potent; also recorded: remarkable
  TI (therapeutic index, IC50/EC50): 84.2
  Classification (Active / Moderately Active / Inactive): Active
HIV-1; listed as (-)-7
  anti-HIV activity / relative potency in words: consistently showed impressive results in the anti-HIV screen
[5]
  EC50: 99 nM
  TI (IC50/EC50): 121
  Classification: Active
[1]
  IC50: 8.11 µM
[6]
  EC50: 639 nM
  TI (IC50/EC50): 16.9
  Classification: Active
MT4 cells; [7]
  IC50: 12 µM
MT4 cells; [8]
  IC50: 10.8 µM
MT4 cells; [9]
  IC50: 11.1 µM

## CCCc1cc(=O)oc2c3c(cc(OC(C)C)c12)O[C@H](C)[C@@H](C)[C@H]3O [Compound 7a, (+)-(8R,9S,10R)-10-Hydroxy-5-isopropyloxy-8,9-dimethyl-4-propyl-9,10-di-hydro-8H-pyrano[2,3-f]-chromen-2-one]
HIV-1
  anti-HIV activity / relative potency in words: consistently showed impressive results in the anti-HIV screen
  Classification (Active / Moderately Active / Inactive): Inactive
[1]
  IC50: 8.4 µM

## CCCc1cc(=O)oc2c3c(c4c(c12)OC(C)(C)C=C4)OC(C)C(C)C3O (single isomer, unassigned; (-)) [(-)-calanolide B]
[2]
  anti-HIV potency of known calanolides, in words: the more potent of the four diastereomers; also recorded: more potent diastereomers in this class

## CCCc1cc(=O)oc2c3c(cc(OC)c12)O[C@H](C)[C@@H](C)[C@@H]3O (relative stereo) [Compound 8b]
HIV-1
  anti-HIV activity / relative potency in words: less potent activities
  Classification (Active / Moderately Active / Inactive): Inactive
[1]
  IC50: > 200 µM

## CCCc1cc(=O)oc2c3c(cc(OC(C)C)c12)O[C@@H](C)[C@H](C)[C@H]3O [(-)-8a, (-)-(8S, 9R, 10R)-10-Hydroxy-5-isopropyloxy-8,9-dimethyl-4-propyl-9,10-dihydro-8H-pyrano[2,3-f]-chromen-2-one]
HIV-1
  anti-HIV activity / relative potency in words: consistently showed impressive results in the anti-HIV screen
  Classification (Active / Moderately Active / Inactive): Inactive
[1]
  IC50: 7.34 µM

## CCCc1cc(=O)oc2c3c(cc(OC(C)C)c12)O[C@H](C)[C@@H](C)[C@@H]3O [Compound 8a, (+)-(8R,9S,10S)-10-Hydroxy-5-isopropyloxy-8,9-dimethyl-4-propyl-9,10-dihydro-8H-pyrano[2,3-f]-chromen-2-one]
[3]
  inhibitory activity against resistant HIV strains, in words: potent inhibitory activities; also recorded: active
[3]; listed as (+)-8a
  inhibitory activity against resistant HIV strains, in words: potent activity
[4]
  EC50: 6.35 nM
[4]; Table 4, N119, MT4 cells
  Classification: Active
HIV-1
  EC50: 161 nM
  anti-HIV activity / relative potency in words: consistently showed impressive results in the anti-HIV screen; also recorded: remarkable
  TI (therapeutic index, IC50/EC50): 130
  Classification (Active / Moderately Active / Inactive): Active
HIV-1; listed as (+)-8a
  anti-HIV activity / relative potency in words: remarkable among the congeners of the invention
[5]
  EC50: 64.9 nM
  TI (IC50/EC50): > 308
  Classification: Active
[1]
  IC50: 21 µM
[6]
  EC50: 365 nM
  TI (IC50/EC50): 54.8
  Classification: Active
MT4 cells; [7]
  IC50: > 20 µM
MT4 cells; [8]
  IC50: > 20 µM
MT4 cells; [9]
  IC50: > 20 µM

## C#CCOc1cc2c(c3oc(=O)cc(CCC)c13)[C@@H](O)[C@H](C)[C@@H](C)O2 (relative stereo) [Compound 8e]
HIV-1
  anti-HIV activity / relative potency in words: less potent activities
  Classification (Active / Moderately Active / Inactive): Inactive
[1]
  IC50: 8.34 µM
